Results: patent EP0528486A2, “Non-substrate inhibitors of farnesyl protein transferase” (MERCK & CO. INC., priority 1991, dated 1993)
pIC50: −log10 of the molar value. Where a SMILES comes first, the peptide text is derived from it.

Tests used:
Assay type in all cases: biochemical, bovine
[1] = molecular target: T1, farnesyl-protein transferase (Bos taurus, UniProt P29702+P49355); assay: Tetrapeptides tested as farnesylation substrates (TLC / autoradiography); settings: for Farnesylation Substrate: peptide 200 µM, partially pure bovine farnesyl-protein transferase, 0.5 µM [3H] FPP, 30 min. at 30°C
T1 construct: partially pure bovine brain farnesyl-protein transferase; from tissue; host or cells: bovine brain (cerebral lobes)
From the text: When a peptide was used as the acceptor substrate, there were two changes to the assay: (1) Ras protein was excluded and, (2) the reactions were stopped by the additon of one tenth volume of 0.5 M EDTA. A portion of the reaction mixture was spotted onto a TLC plate (silica gel 60 thin layer chromatography plates (20 cm x 20 cm, 0.25 mm layer thickness) were from E. Merck (Darrnstadt) and eluted with either ethyl acetate:pyridine: acetic acid:water (10:5:1:3) or n-propanol:water (7:3) elution systems. After drying under vacuum, the plates were sprayed with En³Hance and exposed to X-ray film at -70°C.
CAAX tetrapeptides and other tetrapeptides including Cys-Xaa¹-Xaa²-Xaa³-NRR¹ were tested as farnesylation substrates using [³H]FPP and partially pure bovine brain farnesyl-protein transferase. […] Thin layer chromatography (TLC) conditions were developed which resolved the substrates farnesyl diphosphate (Rf = 0.06) and CVLS (Rf = 0.28) and product S-farnesyl-CVLS (Rf = 0.58). These Rf values reflect TLC conditions using ethylacetate:pyridine: acetic acid:water (10:5:1:3) as the eluent. In another elution system, n-propanol:water (7:3), farnesyl-diphosphate (Rf= 0.18) was readily seperated from farnesylated tetrapeptides (examples: CAIS (Rf=0.84) and CAIM (Rf=0.83)). Quenched reaction mixtures containing peptide, farnesyl-diphosphate and farnesyl-protein transferase were separated by TLC followed by visualization of the radioactive species by autoradiography. […] Control peptides having a Cys to Ser substitution were not substrates.
The indicated peptides at 200 µM were incubated with partially pure bovine farnesyl-protein transferase and 0.5 µM [3H] FPP for 30 min. at 30°C. Autoradiographic exposure time was overnight (15-20 hr).

[2] = molecular target: T1, farnesyl-protein transferase; assay: Inhibition of Ras farnesylation in vitro; settings: Ras-CVLS at 3.5 µM, 0.25 µM [³H]FPP, partially purified enzyme; average of 2-5 determinations; read-out: IC₅₀
Description: Polyisoprenylation of Ras- [³H]Farnesyl diphosphate (FPP) (20 Ci/mmol) was purchased from New England Nuclear. Farnesyl-protein transferase activity assays were carried out at 30°C unless noted otherwise. A typical reaction contained (in a final volume of 50 µl):[³H]farnesyl diphosphate, Ras protein (3.5µM), 50 mM HEPES, pH 7.5, 5 mM MgCl₂ 5 mM dithiothreitol and farnesyl-protein transferase. After thermally pre-equilibrating the assay mixture in the absence of enzyme, reactions were initiated by the addition of farnesyl-protein transferase and stopped at timed intervals by the addition of 1M HCl in ethanol (1 mL). The quenched reactions were allowed to stand for 15 minutes (to complete the precipitation process). After adding 2 mL of 100% ethanol, the reactions were vacuum-filtered through Whatmann GF/C filters. Filters were washed four time with 2 mL aliquots of 100% ethanol, mixed with scintillation fluid (10 mL) and then counted in a Beckmann LS3801 scintillation couter.
For inhibition studies, assays were run as described above, except putative inhibitors were added at the concentration indicated, IC₅₀ values were determined with both farnesyl-protein transferase substrates at their KM concentrations. The KM for Ras protein substrate having the CAAX sequence, CVLS, is 3.5 µM and the KM for FPP is 0.25µM.
Ras proteins used as substrates were expressed in E. coli and purified. […]

[3] = molecular target: T1, farnesyl-protein transferase; assay: Mechanism of inhibition using homogenous, pure farnesyl-protein transferase
Description: To prepare pure enzyme, the nonapeptide, […], was covalently bound to Affigel-10 under anhydrous conditions as described by the manufacturer (15 µmol peptide per 1 mL of Affigel-10). Unreacted resin was treated with ethanolamine. After multiple passes of ω-aminooctyl-agarose-column-purified protein over the peptide column, the column was washed and eluted as described by Reiss, et al., (1990) ibid, to recover farnesyl-protein transferase activity.

Row | Farnesylation Substrate [1] | pIC50 [2] | farnesylation substrate (result in words, TLC autoradiography) ([1]; [³H]FPP, partially pure bovine brain farnesyl-protein transferase) | mechanism of inhibition with respect to Ras-CVLS protein substrate [3] | mechanism of inhibition with respect to farnesyl diphosphate [3] | Structure (SMILES)
1 | - (< 1% conversion) | 5.64 |  |  |  | CSCC[C@H](NC(=O)[C@H](Cc1ccccc1)NC(=O)[C@@H](NC(=O)[C@@H](N)CS)C(C)C)C(N)=O [CVFM-NH₂, Cys-Val-Phe-Met-NH₂] (H-CVFM-NH2)
2 | - (< 1% conversion) | 4.80 | do not serve as effective substrates | competitive inhibitor | not a competitive inhibitor | CC(C)C[C@H](NC(=O)[C@@H](NC(=O)[C@@H](N)CS)C(C)C)C(=O)N[C@@H](CO)C(N)=O [CVLS-NH₂, Cys-Val-Leu-Ser-NH₂] (H-CVLS-NH2)
